In patent US20080070256A1, “Non-Human Animal Models for B-cell Non-Hodgkin's Lymphoma and Uses Thereof” (NATIONAL JEWISH MEDICAL AND RESEARCH CENTER, priority 2006, published 2008):

Legend:
[1] = system: tumors derived from Eμ-MYC mice; experiment: In vivo drug candidate test, transplanted Eμ-MYC tumors (no surface BCR); design: species or system mouse; settings: treated for 7 days, starting 21 days after transplant
Excerpt: (§1) Cohorts of age and sex matched, syngeneic mice (C57/BL6) are given transplants of tumor cells administered by tail vein injection (inoculum ranges from 10^2-10^6 cells, but all of the mice in one cohort usually get the same dose of cells). The mice are observed daily for 14-21 days for presentation of externally evident clinical signs of hematological malignancies. These include splenomegaly and lymphadenopathy, dehydration, scruffy fur, hunched posture, labored breathing, and an ascending hind limb paralysis. When the mice are visibly sick, they begin treatment with the drug candidate. The mice are either analyzed 24 hours after the last dose of drug in order to ascertain the degree of remission caused by the drug, in an acute manner, or left in the vivarium to determine the extent of survival that is afforded by the treatment, over the normal rate of mortality for untreated, tumor-bearing mice.
In this experiment, cohorts of 10 mice each were given transplants of tumors derived from Eμ-MYC mice.

[2] = system: tumors derived from Eμ-MYC/BCR^HEL mice; experiment: In vivo drug candidate test, transplanted murine B-CLL tumors; design: species or system mouse
Excerpt: In this experiment, cohorts of 20 mice each were given transplants of tumors derived from Eμ-MYC/BCR^HEL (resemble human B-CLL) mice. […] Part of the cohort was euthanized and evaluated for remission acutely (left set of graphs).

[3] = system: tumors derived from Eμ-MYC/BCR^HEL/sHEL mice; experiment: In vivo drug candidate test, transplanted murine BL tumors; design: species or system mouse; settings: transient 7 day treatment, starting 20 days after transplant
Excerpt: as §1
In another experiment, depicted in FIG. 33, cohorts of 10 mice each were given transplants of tumors derived from Eμ-MYC/BCR^HEL/sHEL (resemble human BL) mice. 20 days later, when the mice presented externally evident signs of disease, they were treated for 7 days with R788. This cohort was observed over time for kinetics and time frame of mortality following transient treatment with R788.

[4] = system: murine BL cell lines (TBL-1, TBL-8, TBL-9, TBL-14); experiment: MTS viability assay, murine BL cell lines; type: cell-based, mouse; settings: 24 hours
Procedure: (§2) The inventors obtained a highly specific pharmacological inhibitor of Syk through a collaboration with Rigel Pharmaceuticals. […] Also tested were the effects of the Syk kinase inhibitor on primary murine BL the inventors obtained from triply transgenic mice (Example 2). In addition, the effects of R408 were tested on three cell lines derived from human BL tumors (Raji, Ramos and Daudi). […] The cells and drug were incubated at a final volume of 200 μl in each well. Each condition was set up in triplicate wells, in any one experiment. […] The plates were read with a Molecular Dynamics ELISA plate reader, at OD 490. The data presented in FIGS. 29A-29D is from one experiment, representative of three independent assays. The error bars represent the standard deviations. […] The cells were cultured for 22 hours with the compound, and pulsed for the last 2 hours with MTS reagent. The O.D.490 absorbance of the wells was determined 24 hours after the beginning of the experiment. All conditions were tested in triplicate wells. The error bars represent the standard deviations of the triplicate wells.
Using this approach, four primary tumors derived from Eμ-MYC/BCR^HEL/sHEL mice have been tested, three cell lines derived from such tumors (TBL-1, TBL-8 and TBL-14), as well as a T-cell lymphoma cell line (iTLS-10). […] The cells were incubated for an MTS assay as described elsewhere herein. […]

Raji cells [5] = experiment: MTS viability assay on Raji cells; type: cell-based, human; settings: increasing concentrations
Procedure: as §2
In order to validate the observations obtained in the mouse models of BL, the inventors tested whether the pharmacological inhibition of Syk in a human BL cell line (Raji) also results in the reduced viability of those cells. […]

Raji cells [6] = experiment: Apoptosis of Raji cells by propidium iodide stain (subdiploid population); type: cell-based, human; settings: exposure in vitro
Excerpt: In order to validate the observations obtained in the mouse models of BL, the inventors tested whether the pharmacological inhibition of Syk in a human BL cell line (Raji) also results in the reduced viability of those cells. […] Similar results are observed upon the shRNA-mediated disruption of Syk expression in Raji cells.

Eμ-MYC/BCR^HEL tumors = experiment: Therapeutic trial on transplanted Eμ-MYC/BCR^HEL tumors (B-CLL model); type: in vivo, mouse; settings: daily intravenous injections for 7 days
Procedure: Groups of 6 mice were utilized for each of the experimental protocols. Four mice bearing transplanted tumors, and two age and sex matched wild type mice were treated with the same drug and equal frequency. The transplant recipient mice were held until tumors became clinically apparent (approximately 100 days for the Eμ-MYC tumors, 58 days for the Eμ-MYC/BCR^HEL tumors, 21 days for the Eμ-MYC/BCR^HEL/sHEL tumors, and 14 days for the MMTV-rtTA/TRE-MYC/BCR^HEL/sHEL tumors). The mice then received daily injections of the indicated agents for 7 days, as applicable. Mice were either euthanized 24 hours after the last injection of drug, or held indefinitely to ascertain survival. Lymph nodes, spleens and bone marrows were collected and processed to generate single cell suspensions. The cells were counted as described above. An aliquot from the cell suspensions was stained with antibodies for B220, Thy 1.2, Mac-1, IgM^a, B7-2, and CD69, in order to determine the proportion of B-cells, T-cells and myeloid cells, as well as the activation status of the HEL-reactive B-cells. Treatments were performed with cyclosporin A (Bedford laboratories, Bedford Ohio) (2 mg/kg/day), FK506 (Prograf, Fujisawa Healthcare, Deerfield, Ill.) (2 mg/kg/day), rapamycin (Biomol, King of Prussia, Pa.) (2 mg/kg/day), and cyclophosphamide (1 mg/kg/day) (Bristol-Myers Squibb, Princeton, N.J.). […]

[7] = system: tumors from the jaws of MMTV-rtTA/TRE-MYC/BCR^HEL/sHEL mice; settings: daily intravenous injections for 7 days
Procedure: (§3) Groups of 6 mice were utilized for each of the experimental protocols. Four mice bearing transplanted tumors, and two age and sex matched wild type mice were treated with the same drug and equal frequency. The transplant recipient mice were held until tumors became clinically apparent (approximately 100 days for the Eμ-MYC tumors, 58 days for the Eμ-MYC/BCR^HEL tumors, 21 days for the Eμ-MYC/BCR^HEL/sHEL tumors, and 14 days for the MMTV-rtTA/TRE-MYC/BCR^HEL/sHEL tumors). The mice then received daily injections of the indicated agents for 7 days, as applicable. Mice were either euthanized 24 hours after the last injection of drug, or held indefinitely to ascertain survival. Lymph nodes, spleens and bone marrows were collected and processed to generate single cell suspensions. The cells were counted as described above. An aliquot from the cell suspensions was stained with antibodies for B220, Thy 1.2, Mac-1, IgM^a, B7-2, and CD69, in order to determine the proportion of B-cells, T-cells and myeloid cells, as well as the activation status of the HEL-reactive B-cells. Treatments were performed with cyclosporin A (Bedford laboratories, Bedford Ohio) (2 mg/kg/day), FK506 (Prograf, Fujisawa Healthcare, Deerfield, Ill.) (2 mg/kg/day), rapamycin (Biomol, King of Prussia, Pa.) (2 mg/kg/day), and cyclophosphamide (1 mg/kg/day) (Bristol-Myers Squibb, Princeton, N.J.). The therapeutics were suspended in PBS, sterilized by filtration through a 0.22 μm membrane, and administered intravenously through the tail vein.
(§4) 10^6 cells obtained from tumor-bearing spleen or lymph nodes were transplanted into cohorts of 4-10 mice. […] The tumor bearing and control wild-type mice were then treated daily for seven days with intravenous injections of the various drugs. Mice were either euthanized 24 hours after the last injection of drug, or held indefinitely to ascertain survival. The analysis of tumor burden was performed with cells obtained from lymph nodes and spleens.

[8] = system: Eμ-MYC/BCR^HEL/sHEL tumors
Procedure: as §3, §4

[9] = system: Eμ-MYC, Eμ-MYC/BCR^HEL/sHEL and MMTV-rtTA/TRE-MYC/BCR^HEL/sHEL jaw tumors; settings: mouse, in vivo
Procedure: as §3

[10] = system: MMTV-rtTA/TRE-MYC/BCR^HEL/sHEL tumors (FLL); settings: mouse, in vivo
Procedure: (§5) Tumor cells were harvested from lymph nodes and spleens and transplanted. The recipient mice were held until tumors became clinically apparent. Tumor recipient (clear bars) and wild type (filled bars) mice then received daily injections of the indicated drugs for 7 days of either cyclosporine A (csa), FK506, rapamycin (rap) or cyclophosphamide (cyph). The mice were euthanized 24 hours after the last injection of drug, and lymph nodes were harvested for analysis of either total number of cells or surface markers of donor cells (not shown).
(§6) Tumor cells were harvested from lymph nodes and spleens and transplanted as described. The recipient mice were held until tumors became clinically apparent. The mice were then either maintained on a normal mouse diet, or switched on to a diet containing doxycycline, that shut off MYC overexpression. The mice were euthanized at the indicated times, and the lymph nodes were collected, used to generate single cell suspensions, cell counts and flow cytometric analysis.
as §3, §4

[11] = system: MMTV-rtTA/TRE-MYC/BCR^HEL/sHEL tumors (DLBCL); settings: mouse, in vivo
Procedure: as §5, §6, §3, §4

[12] = daily intravenous injections for 7 days

Q: With `COc1cc(Nc2ncc(F)c(Nc3ccc4c(n3)N(COP(=O)(O)O)C(=O)C(C)(C)O4)n2)cc(OC)c1OC` [R788] as the molecule, how does the “survival of tumor-bearing mice” value [1] read?
A: perished at the same rate and time frame as their untreated, tumor-bearing counterparts

Q: What about the “survival versus untreated counterparts” value ([2]; transient 7 day treatment) of the same molecule?
A: twice as long

Q: What about the “tumor burden (number of cells in lymph nodes and spleens)” value ([2]; treated for 7 days, starting 24 days after transplant) of the same molecule?
A: significantly decreased the tumor burden

Q: And the “survival versus untreated counterparts” value [3]?
A: at least twice as long

Q: How did the “survival of tumor-bearing mice” value [1] turn out when `COc1cc(Nc2ncc(F)c(Nc3ccc4c(n3)NC(=O)C(C)(C)O4)n2)cc(OC)c1OC` [R406] was run?
A: does not extend the survival

Q: What about the “cell viability (MTS)” value [4] of the same molecule?
A: susceptible

Q: And the “viability of Raji cells (MTS)” value (Raji cells [5])?
A: dose response decrease in viability

Q: And the “apoptosis (subdiploid population, propidium iodide)” value (Raji cells [6])?
A: undergo apoptosis

Q: How did the “response of transplanted Eμ-MYC/BCR^HEL tumors to drug” value (Eμ-MYC/BCR^HEL tumors) turn out when `O=P1(N(CCCl)CCCl)NCCCO1` (stereo not shown) [cyclophosphamide] was run?
A: responded

Q: What about the “response of transplanted MMTV-rtTA/TRE-MYC/BCR^HEL/sHEL jaw tumors to drug” value [7] of the same molecule?
A: responded

Q: What about the remission ([8]; after seven-day treatment) of the same molecule?
A: brief remission

Q: What about the “survival compared with untreated tumor-bearing mice” value ([8]; after seven-day treatment, observed 100 days) of the same molecule?
A: died more rapidly than did untreated, tumor-bearing mice

Q: And the “response of transplanted Eμ-MYC/BCR^HEL/sHEL tumors to drug” value [8, 12]?
A: responded

Q: And the “general cytotoxicity (reduction in T cells, myeloid cells, non-transgenic B cells)” value [9]?
A: more general cytotoxicity

Q: And the “response of the transplanted tumors to drug” value [9]?
A: strong response

Q: What about the tumor regression [9] of the same molecule?
A: tumor regression in each instance

Q: And the tumor regression (Eμ-MYC tumors; [12])?
A: tumor regression in all animals

Q: And the “response of transplanted Eμ-MYC tumors to drug (tumor burden, lymph nodes and spleens)” value (Eμ-MYC tumors; daily intravenous injections for 7 days, analysed 24 hours after last injection)?
A: strong response

Q: What about the “general cytotoxicity (reduction in T-cells, myeloid cells, non-transgenic B-cells)” value (Eμ-MYC tumors; tumor-bearing mice, 7 days treatment) of the same molecule?
A: more general cytotoxicity

Q: What about the remission [10] of the same molecule?
A: brief remission

Q: And the “survival compared with untreated tumor-bearing mice” value [10]?
A: died more rapidly than did untreated, tumor-bearing mice

Q: And the “response of transplanted MMTV-rtTA/TRE-MYC/BCR^HEL/sHEL tumors to drug” value ([10]; iv)?
A: responded

Q: What about the remission [11] of the same molecule?
A: brief remission

Q: What about the “survival compared with untreated tumor-bearing mice” value [11] of the same molecule?
A: died more rapidly than did untreated, tumor-bearing mice

Q: And the “response of transplanted MMTV-rtTA/TRE-MYC/BCR^HEL/sHEL tumors to drug” value ([11]; iv)?
A: responded
